Data taken from PMC11945486, “TAS1R2/TAS1R3 Single-Nucleotide Polymorphisms Affect Sweet Taste Receptor Activation by Sweeteners: The SWEET Project” (Nutrients, 2025).

Biological target: T1, mTAS1R2-WT/mTAS1R3-I60T (Mus musculus, UniProt Q925D8+Q925I4, I60T)
T1 construct: expressed in transfected cells; host or cells: HEK293T-Gα16gust44
T1 sequence (Q925I4 20-843): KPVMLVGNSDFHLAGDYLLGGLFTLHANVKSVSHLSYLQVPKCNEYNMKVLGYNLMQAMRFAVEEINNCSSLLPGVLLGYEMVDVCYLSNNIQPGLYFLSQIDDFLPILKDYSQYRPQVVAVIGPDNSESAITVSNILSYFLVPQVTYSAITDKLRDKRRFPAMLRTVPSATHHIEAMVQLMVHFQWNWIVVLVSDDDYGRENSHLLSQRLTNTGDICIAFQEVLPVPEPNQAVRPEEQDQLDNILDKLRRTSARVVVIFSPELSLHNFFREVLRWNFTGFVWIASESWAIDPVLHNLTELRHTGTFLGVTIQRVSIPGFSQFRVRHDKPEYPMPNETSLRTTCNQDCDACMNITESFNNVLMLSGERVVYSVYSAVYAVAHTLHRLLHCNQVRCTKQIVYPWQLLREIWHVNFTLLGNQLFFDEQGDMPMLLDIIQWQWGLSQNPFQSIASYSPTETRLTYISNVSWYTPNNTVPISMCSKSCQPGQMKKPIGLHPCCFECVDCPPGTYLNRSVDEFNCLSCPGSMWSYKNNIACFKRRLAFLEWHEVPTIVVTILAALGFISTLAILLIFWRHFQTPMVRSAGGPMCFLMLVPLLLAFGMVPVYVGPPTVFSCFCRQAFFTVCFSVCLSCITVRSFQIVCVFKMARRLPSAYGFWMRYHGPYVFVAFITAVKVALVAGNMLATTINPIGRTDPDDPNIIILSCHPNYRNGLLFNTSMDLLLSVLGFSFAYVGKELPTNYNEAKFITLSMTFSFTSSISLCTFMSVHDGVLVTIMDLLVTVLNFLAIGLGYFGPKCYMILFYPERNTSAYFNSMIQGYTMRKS
T1 sequence (Q925D8 21-858 I60T): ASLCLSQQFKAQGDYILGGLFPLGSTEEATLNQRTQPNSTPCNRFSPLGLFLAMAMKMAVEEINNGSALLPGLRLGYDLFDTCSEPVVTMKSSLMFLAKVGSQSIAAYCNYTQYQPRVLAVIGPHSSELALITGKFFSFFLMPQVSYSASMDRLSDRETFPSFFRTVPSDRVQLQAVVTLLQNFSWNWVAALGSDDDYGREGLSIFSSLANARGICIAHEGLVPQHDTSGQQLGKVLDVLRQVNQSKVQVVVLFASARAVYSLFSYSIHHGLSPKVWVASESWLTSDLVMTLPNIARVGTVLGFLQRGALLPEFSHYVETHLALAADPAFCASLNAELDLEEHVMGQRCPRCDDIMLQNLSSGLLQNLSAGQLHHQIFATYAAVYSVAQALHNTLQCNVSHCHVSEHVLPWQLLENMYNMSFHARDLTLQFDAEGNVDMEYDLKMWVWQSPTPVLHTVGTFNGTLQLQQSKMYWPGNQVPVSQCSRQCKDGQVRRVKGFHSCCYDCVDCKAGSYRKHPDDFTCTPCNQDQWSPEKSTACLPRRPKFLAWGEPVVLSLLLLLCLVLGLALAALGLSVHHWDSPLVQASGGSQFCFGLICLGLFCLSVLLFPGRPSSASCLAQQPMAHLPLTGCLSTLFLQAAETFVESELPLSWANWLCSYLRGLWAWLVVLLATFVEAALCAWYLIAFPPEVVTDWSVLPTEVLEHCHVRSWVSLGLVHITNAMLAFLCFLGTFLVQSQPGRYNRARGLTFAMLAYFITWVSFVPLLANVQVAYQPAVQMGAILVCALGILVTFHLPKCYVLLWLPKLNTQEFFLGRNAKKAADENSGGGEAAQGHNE
Assay: Calcium mobilisation assay, HEK293T-Gα16gust44 cells, mouse TAS1R3-I60T variant
Assay type: cell-based
Settings: "-": no activation; for EC50 / Max ΔF/F0: mTAS1R2-WT + mTAS1R3-I60T; for Max ΔF/F0: maximal signal amplitude; for R1 = Variant EC50/WT EC50: mTAS1R3-I60T vs mTAS1R3-WT
Protocol: The HEK293T cells were kindly provided by Jay P. Slack (Givaudan Flavors Corporation; Cincinnati, OH, USA). HEK293T cells stably transfected with Gα16gust44 [43, 67] were seeded in poly-D-lysine-coated clear-bottom black 96-well plates (0.35 × 10^5 cells/well) in high-glucose DMEM supplemented with 2 mM GlutaMAX, 10% dialysed foetal bovine serum with penicillin/streptomycin and G418 (400 μg/mL) at 37 °C and 6.3% CO2 in a humidified atmosphere as previously reported. […] As a negative control, HEK293T cells were mock-transfected with the empty expression vector. After a further 24 h of incubation, the HEK293T cells were washed with C1 buffer (130 mM NaCl, 5 mM KCl, 10 mM HEPES pH 7.4 and 2 mM CaCl2). The 96-well plates containing the cells were then stimulated with sweet-tasting compounds. […] Different concentration ranges were tested depending on the sweet compound injected. The Ca^2+ changes were expressed as fractional changes in fluorescent light intensity: ΔF/F = (F − F0)/F0, where F was the fluorescent light intensity at each point, and F0 was the value of emitted fluorescent light prior to stimulus application. To calculate dose–response relationships, the changes in fluorescence upon stimulus application were averaged, mock-subtracted and baseline-corrected. The dose–response data obtained were adjusted using a 4-parameter logistic equation. The half-maximal effective concentrations (EC50 values) and maximal signal amplitudes were calculated using SigmaPlot software (version 15.0) (Systat Software; San Jose, CA, USA).
HEK293T-Gα16gust44 cells were transiently cotransfected with pcDNA6-MAX-mTAS1R2-FLAG, pcDNA4-MAX-mTAS1R3-WT-FLAG or pcDNA4-MAX-mTAS1R3-I60T-FLAG, and pCMV-GCaMP5G as previously described in detail. After 24 h, the cells were washed with C1 buffer and stimulated with a logarithmically increasing range of sweetener concentrations. Calcium responses during automated application were monitored using a FlexStation®3 Multi-Mode microplate reader. The dose–response curves, EC50 values and maximal signal amplitudes were calculated as previously described.
For in vitro calcium mobilisation assay performed on hTAS1R2-SNPs, hTAS1R3-SNPs and mTAS1R3-I60T, 6 to 7 concentrations were tested for each sweet compound, plus buffer alone. All concentration–receptor combinations were measured in duplicate, and each experiment was repeated at least 4 times (8 wells/concentration). Results were expressed for each concentration as ΔF/F mean ± SEM and represented as dose–response curves.

| EC50 | Max ΔF/F0 | R1 = Variant EC50/WT EC50 | SMILES |
| --- | --- | --- | --- |
| 744 ± 19 µM | 1.03 ± 0.02 | 1.7 | CC1=CC(=O)NS(=O)(=O)O1 [Acesulfame K, acesulfame K] |
| 73 ± 2 µM | 0.71 ± 0.01 | 1.7 | C=C1C[C@@]23CC[C@H]4[C@@](C)(CCC[C@@]4(C)C(=O)O[C@@H]4O[C@H](CO)[C@@H](O)[C@H](O[C@@H]5O[C@H](CO)[C@@H](O)[C@H](O)[C@H]5O)[C@H]4O[C@@H]4O[C@H](CO)[C@@H](O)[C@H](O)[C@H]4O)[C@@H]2CC[C@]1(O[C@@H]1O[C@H](CO)[C@@H](O)[C@H](O[C@@H]2O[C@H](CO)[C@@H](O)[C@H](O)[C@H]2O)[C@H]1O[C@@H]1O[C@H](CO)[C@@H](O)[C@H](O)[C@H]1O)C3 [Rebaudioside M, rebaudioside M] |
| 1520 ± 56 µM | 1.47 ± 0.03 | 2.0 | OC[C@H]1O[C@H](O[C@]2(CCl)O[C@H](CCl)[C@@H](O)[C@@H]2O)[C@H](O)[C@@H](O)[C@H]1Cl [Sucralose] |

| SMILES | EC50 | Max ΔF/F0 | R1 = Variant EC50/WT EC50 |
| --- | --- | --- | --- |
| C[C@H](CC[C@@H](O[C@@H]1O[C@H](CO[C@@H]2O[C@H](CO)[C@@H](O)[C@H](O)[C@H]2O)[C@@H](O)[C@H](O)[C@H]1O[C@@H]1O[C@H](CO)[C@@H](O)[C@H](O)[C@H]1O)C(C)(C)O)[C@H]1CC[C@@]2(C)[C@@H]3CC=C4[C@@H](CC[C@H](O[C@@H]5O[C@H](CO[C@@H]6O[C@H](CO)[C@@H](O)[C@H](O)[C@H]6O)[C@@H](O)[C@H](O)[C@H]5O)C4(C)C)[C@]3(C)[C@H](O)C[C@]12C [Mogroside V, mogroside V] | 225 ± 25 µM | 0.50 ± 0.03 | 1.7 |
